Entries after “also recorded” stand apart in the source; their conditions may differ.
Tests used:
[1] = intestinal absorption of isoquercetin; format: in vivo; conditions: human intestinal tract; compared with rutin and quercetin aglycone
From the text: Therefore, the increased effectivity of ascorbate protectioin may be caused by the fact that isoquercetin contains a glucose molecule. This glucose molecule seems to be the reason why isoquercetin is able to use the sodium-dependent glucose transport pathway of the intestinal brush-border membrane in its absorption process (Gee et al., 1998).

[2] = earlier pharmacokinetic studies (Hollman and Katan, 1997; Hollman, 1997); cited from earlier work

For `O=c1c(O[C@@H]2O[C@H](CO)[C@@H](O)[C@H](O)[C@H]2O)c(-c2ccc(O)c(O)c2)oc2cc(O)cc(O)c12` [isoquercetin, quercetin-3-O-glucoside], the absorption [1] is listed as “better than that of pure aglycone; also recorded: far better absorption rates in human intestinal tract than rutin or the quercetin aglycone” and the “absorption rate and bioavailability” value [2] is listed as “excellent absorption rate and bioavailability; also recorded: absorbed better than rutin and quercetin”.
